Measurements reported in US20130065922A1, “NOVEL AMIDES AS FUNGICIDES” (priority 2010, published 2013).
Where two headings read alike, the source gives them in different places.

How the values were obtained:
Pythium ultimum = assay: Pythium ultimum/Liquid Culture (Seedling Damping Off); format: cell-based; conditions: Globisporangium ultimum, read-out: inhibit fungal infestation
Phytophthora infestans = assay: whole plant or invertebrate; format: in vivo; conditions: in Solanum lycopersicum, foliar, read-out: inhibit fungal infestation
[1] = test system: Blumeria graminis f. Sp. tritici (Erysiphe graminis f. Sp. tritici); assay: Blumeria graminis f. Sp. tritici (Erysiphe graminis f. Sp. tritici)/Wheat/Leaf Disc Preventative (Powdery Mildew on Wheat); format: in vivo; conditions: foliar, read-out: inhibit fungal infestation
[2] = test system: Phaeosphaeria nodorum (Septoria nodorum); assay: Phaeosphaeria nodorum (Septoria nodorum)/Wheat/Leaf Disc Preventative (Glume Blotch); format: in vivo; conditions: Parastagonospora nodorum, foliar, read-out: inhibit fungal infestation
Plasmopara viticola = assay: whole plant or invertebrate; format: in vivo; conditions: foliar, read-out: inhibit fungal infestation
[3] = 200 ppm, liquid culture (PDB), 24° C., growth inhibition photometrically 2-3 days after application
[4] = 200 ppm, wheat leaf segments cv. Kanzler, preventative, 6-8 days after application, untreated control infected to over 80%
[5] = 200 ppm, wheat leaf segments cv. Kanzler, preventative, 5-7 days after application, untreated control infected to over 80%

Structure (SMILES)	inhibition at 200 ppm (Pythium ultimum; [3]) [%]	inhibition at 200 ppm (Phytophthora infestans) [%]	melting point [°C]	inhibition at 200 ppm [1] [%]	inhibition at 200 ppm (Pythium ultimum) [%]	inhibition at 200 ppm [2] [%]	inhibition at 200 ppm (Plasmopara viticola) [%]	inhibition at 200 ppm [1, 4] [%]	inhibition at 200 ppm [2, 5] [%]
CCC(Oc1ccc2ncc(OC)cc2c1)C(=O)NC(C)(C)C (stereo not drawn) [Compound 12, N-tert-Butyl-2-(3-methoxy-quinolin-6-yloxy)-butyramide]	≥ 80	≥ 80	131 to 133	–	–	–	–	–	–
COCC#CC(C)(C)NC(=O)C(Oc1cc(C)c2ncc(OC)cc2c1)SC (stereo not drawn) [Compound 17, N-(4-Methoxy-1,1-dimethyl-but-2-ynyl)-2-(3-methoxy-8-methyl-quinolin-6-yloxy)-2-methylsulfanyl-acetamide]	–	≥ 80	94 to 98	≥ 80	≥ 80	≥ 80	≥ 80	–	–
CO/N=C/C(C)(C)NC(=O)C(Oc1cc(Cl)c2ncc(OC)cc2c1)SC (stereo not drawn) [Compound 15, 2-(8-Chloro-3-methoxy-quinolin-6-yloxy)-N-(2-methoxyimino-1,1-dimethyl-ethyl)-2-methylsulfanyl-acetamide]	≥ 80	≥ 80	124 to 125	–	–	–	≥ 80	≥ 80	≥ 80
C#CC(C)(C)NC(=O)C(CC)Oc1ccc2ncc(OC)cc2c1 (stereo not drawn) [Compound 7, N-(1,1-Dimethyl-prop-2-ynyl)-2-(3-methoxy-quinolin-6-yloxy)-butyramide]	≥ 80	≥ 80	109 to 112	–	–	–	–	≥ 80	–
CO/N=C/C(C)(C)NC(=O)C(Oc1ccc2ncc(OC)cc2c1)SC (stereo not drawn) [Compound 1, N-(2-Methoxyimino-1,1-dimethyl-ethyl)-2-(3-methoxy-quinolin-6-yloxy)-2-methylsulfanyl-acetamide]	≥ 80	≥ 80	122 to 124	–	–	–	–	≥ 80	–
CO/N=C/C(C)(C)NC(=O)C(Oc1ccc2ncc(SC)cc2c1)SC (stereo not drawn) [Compound 27, N-(2-Methoxy-imino-1,1-dimethyl-ethyl)-2-methylsulfanyl-2-(3-methylsulfanyl-quinolin-6-yloxy)-acetamide]	≥ 80	≥ 80	120 to 122	–	–	–	≥ 80	≥ 80	≥ 80
COCC#CC(C)(C)NC(=O)C(Oc1ccc2ncc(OC)cc2c1)SC (stereo not drawn) [Compound 4, N-(4-Methoxy-1,1-dimethyl-but-2-ynyl)-2-(3-methoxy-quinolin-6-yloxy)-2-methylsulfanyl-acetamide]	–	≥ 80	95 to 98	≥ 80	≥ 80	–	≥ 80	–	–
CO/N=C/C(C)(C)NC(=O)C(OC)Oc1ccc2ncc(SC)cc2c1 (stereo not drawn) [Compound 56, 2-Methoxy-N-(2-methoxyimino-1,1-dimethyl-ethyl)-2-(3-methylsulfanyl-quinolin-6-yloxy)-acetamide]	≥ 80	≥ 80	98 to 100	–	–	–	–	–	–
COc1cnc2c(C)cc(OC(SC)C(=O)NC(C)(C)C)cc2c1 (stereo not drawn) [Compound 16, N-tert-Butyl-2-(3-methoxy-8-methyl-quinolin-6-yloxy)-2-methylsulfanyl-acetamide]	≥ 80	≥ 80	147 to 150	–	–	–	–	≥ 80	≥ 80
C#CC(C)(C)NC(=O)C(CC)Oc1cc(C)c2ncc(SC)cc2c1 (stereo not drawn) [Compound 37, N-(1,1-Dimethyl-prop-2-ynyl)-2-(8-methyl-3-methylsulfanyl-quinolin-6-yloxy)-butyramide]	≥ 80	–	134 to 136	–	–	–	≥ 80	–	≥ 80
C#CC(C)(C)NC(=O)C(Oc1cc(C)c2ncc(OCC)cc2c1)SC (stereo not drawn) [Compound 25, N-(1,1-Dimethyl-prop-2-ynyl)-2-(3-ethoxy-8-methyl-quinolin-6-yloxy)-2-methylsulfanyl-acetamide]	≥ 80	–	160 to 162	–	–	–	≥ 80	≥ 80	≥ 80
CCC(Oc1ccc2ncc(SC)cc2c1)C(=O)NC(C)(C)C (stereo not drawn) [Compound 30, N-tert-Butyl-2-(3-methylsulfanyl-quinolin-6-yloxy)-butyramide]	≥ 80	≥ 80	113 to 115	–	–	–	≥ 80	≥ 80	–
CCOc1cnc2ccc(OC(SC)C(=O)NC(C)(C)C)cc2c1 (stereo not drawn) [Compound 26, N-tert-Butyl-2-(3-ethoxy-quinolin-6-yloxy)-2-methylsulfanyl-acetamide]	≥ 80	–	120 to 123	–	–	–	–	≥ 80	≥ 80
C#CC(C)(C=C)NC(=O)C(Oc1ccc2ncc(SC)cc2c1)SC (stereo not drawn) [Compound 63, N-(1-Ethynyl-1-methyl-allyl)-2-methylsulfanyl-2-(3-methylsulfanyl-quinolin-6-yloxy)-acetamide]	≥ 80	≥ 80	121 to 123	–	–	–	≥ 80	–	–
COc1cnc2ccc(OC(SC)C(=O)NC(C)(C)C)cc2c1 (stereo not drawn) [Compound 2, N-tert-Butyl-2-(3-methoxy-quinolin-6-yloxy)-2-methylsulfanyl-acetamide]	≥ 80	≥ 80	110 to 115	–	–	–	–	≥ 80	–
CCSc1cnc2ccc(OC(SC)C(=O)NC(C)(C)/C=N/OC)cc2c1 (stereo not drawn) [Compound 64, 2-(3-Ethylsulfanyl-quinolin-6-yloxy)-N-(2-methoxyimino-1,1-dimethyl-ethyl)-2-methylsulfanyl-acetamide]	≥ 80	≥ 80	105 to 107	–	–	–	≥ 80	≥ 80	–
CSc1cnc2ccc(OC(SC)C(=O)NC(C)(C#N)C3CC3)cc2c1 (stereo not drawn) [Compound 65, N-(Cyano-cyclopropyl-methyl-methyl)-2-methylsulfanyl-2-(3-methyl-sulfanyl-quinolin-6-yloxy)-acetamide]	≥ 80	≥ 80	–	–	–	–	≥ 80	–	≥ 80
CC#CC(C)(C)NC(=O)C(Oc1cc(Cl)c2ncc(SC)cc2c1)SC (stereo not drawn) [Compound 33, 2-(8-Chloro-3-methylsulfanyl-quinolin-6-yloxy)-N-(1,1-dimethyl-but-2-ynyl)-2-methylsulfanyl-acetamide]	–	≥ 80	153 to 155	–	≥ 80	–	≥ 80	–	–
C#CC(C)(C)NC(=O)C(CC)Oc1ccc2ncc(SC)cc2c1 (stereo not drawn) [Compound 29, N-(1,1-Dimethyl-prop-2-ynyl)-2-(3-methylsulfanyl-quinolin-6-yloxy)-butyramide]	≥ 80	≥ 80	121 to 123	–	–	–	≥ 80	≥ 80	–
CO/N=C/C(C)(C)NC(=O)C(OC)Oc1ccc2ncc(OC)cc2c1 (stereo not drawn) [Compound 8, 2-Methoxy-N-(2-methoxyimino-1,1-dimethyl-ethyl)-2-(3-methoxy-quinolin-6-yloxy)-acetamide]	≥ 80	≥ 80	100 to 106	–	–	–	–	≥ 80	–
C#CC(C)(C#C)NC(=O)C(Oc1cc(C)c2ncc(OCC)cc2c1)SC (stereo not drawn) [Compound 23, 2-(3-Ethoxy-8-methyl-quinolin-6-yloxy)-N-(1-ethynyl-1-methyl-prop-2-ynyl)-2-methylsulfanyl-acetamide]	≥ 80	–	143 to 145	–	–	–	≥ 80	≥ 80	≥ 80
C#CC(C)(C)NC(=O)C(Oc1cc(Cl)c2ncc(SC)cc2c1)SC (stereo not drawn) [Compound 32, 2-(8-Chloro-3-methylsulfanyl-quinolin-6-yloxy)-N-(1,1-dimethyl-prop-2-ynyl)-2-methylsulfanyl-acetamide]	≥ 80	≥ 80	157 to 159	–	–	–	≥ 80	–	–
COCC(C)(C#N)NC(=O)C(Oc1cc(C)c2ncc(OC)cc2c1)SC (stereo not drawn) [Compound 18, N-(1-Cyano-2-methoxy-1-methyl-ethyl)-2-(3-methoxy-8-methyl-quinolin-6-yloxy)-2-methylsulfanyl-acetamide]	≥ 80	≥ 80	123 to 129	–	–	–	≥ 80	≥ 80	–
CSc1cnc2ccc(OC(SC)C(=O)NC(C)(C)C#N)cc2c1 (stereo not drawn) [Compound 68, N-(Cyano-dimethyl-methyl)-2-methylsulfanyl-2-(3-methylsulfanyl-quinolin-6-yloxy)-acetamide]	≥ 80	≥ 80	–	–	–	–	≥ 80	–	–
CC#CC(C)(C)NC(=O)C(Oc1cc(C)c2ncc(OCC)cc2c1)SC (stereo not drawn) [Compound 24, N-(1,1-Dimethyl-but-2-ynyl)-2-(3-ethoxy-8-methyl-quinolin-6-yloxy)-2-methylsulfanyl-acetamide]	–	–	137 to 139	≥ 80	≥ 80	–	≥ 80	–	–
